Source: paper PMC2707030 (Clinical cancer research : an official journal of the …, 2009)

Columns and labels:
[1] = cited from earlier work
[2] = tested on: ATP-binding cassette transporter ABCB1 (P-glycoprotein, MDR1); details: cited from earlier work
[3] = Population pharmacokinetics; type: in vivo, human
[4] = rats; cited from earlier work
[5] = nonparametric bootstrap, 1342 converged of 1500 runs, 98 patients, final model

## C/C=C1\NC(=O)[C@H]2CSSCC/C=C/[C@H](CC(=O)N[C@H](C(C)C)C(=O)N2)OC(=O)[C@H](C(C)C)NC1=O [romidepsin]
[1]; dose 13 mg/m^2
  Total clearance reported in adults: 4.8 L/h/m^2
[1]; dose 17.8 mg/m^2
  Mean CL reported in adults: 10.5 L/h/m^2
[2]
  Substrate of ABCB1: substrate
[3]; difference to carriers did not reach statistical criteria (ΔOFV = 3.4)
  CL, non-carriers of ABCB1 2677 GA/AA: 16 L/h
[3]; following 4-hour infusion, 14 or 18 mg/m^2, final two-compartment model
  Estimated elimination half-life: 3.5 h
[3]; n=7, difference to non-carriers did not reach statistical criteria (ΔOFV = 3.4)
  CL, carriers of ABCB1 2677 GA/AA: 13 L/h
[3]; [5]
  CL, bootstrap analysis median (%RSE): 15.9 (6.2) L/h
  Q, bootstrap analysis median (%RSE): 1.01 (14.7) L/h
  V1, bootstrap analysis median (%RSE): 9.71 (8.9) L
  V2, bootstrap analysis median (%RSE): 4.73 (11.1) L
[4]
  Fraction of the dose excreted into the bile: 66%
